The target in test [1] is Prostaglandin G/H synthase 2 (Ovis aries). The test is described as follows: Inhibition of ovine COX-2 colorimetric enzyme immunoassay.
Test [2] has as its target Prostaglandin G/H synthase 2 (Homo sapiens) (UniProt P35354). The test is described as follows: Binding affinity to human recombinant COX-2 assessed as inhibition constant preincubated for 5 mins followed by arachidonic acid addition measured every 30 sec for 10 mins by fluorescence based assay.
The target in test [3] is Prostaglandin G/H synthase 2 (Ovis aries). The test is described as follows: Inhibition of ovine COX-2 using arachidonic acid as substrate measured after 2 mins by colorimetric enzyme immune assay.
The target is the same in test [4]. The test is described as follows: Inhibition of ovine COX-2 by colorimetric inhibitor screening assay.

Molecules are shown by their SMILES.

Chain of Prostaglandin G/H synthase 2 (Homo sapiens) (P35354 whole entry, looked up): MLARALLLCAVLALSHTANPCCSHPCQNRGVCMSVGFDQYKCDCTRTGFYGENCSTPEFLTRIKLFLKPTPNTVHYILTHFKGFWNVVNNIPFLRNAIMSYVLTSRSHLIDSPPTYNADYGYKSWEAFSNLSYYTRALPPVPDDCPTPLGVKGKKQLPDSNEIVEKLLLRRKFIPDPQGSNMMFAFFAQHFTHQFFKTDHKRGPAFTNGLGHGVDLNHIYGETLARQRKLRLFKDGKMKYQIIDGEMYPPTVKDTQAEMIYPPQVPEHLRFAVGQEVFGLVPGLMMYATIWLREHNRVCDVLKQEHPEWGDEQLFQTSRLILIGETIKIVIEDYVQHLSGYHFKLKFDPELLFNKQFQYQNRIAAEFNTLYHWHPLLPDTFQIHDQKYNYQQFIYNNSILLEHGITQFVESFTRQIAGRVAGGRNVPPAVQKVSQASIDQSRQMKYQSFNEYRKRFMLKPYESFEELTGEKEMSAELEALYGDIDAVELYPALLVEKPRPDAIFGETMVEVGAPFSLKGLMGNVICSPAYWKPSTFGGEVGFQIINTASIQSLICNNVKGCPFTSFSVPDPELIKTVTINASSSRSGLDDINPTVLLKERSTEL

As a reminder, the IC50 is the concentration at which inhibition is half-maximal. High values mean lower potency, low ones higher potency. Take `COc1ccc2cc(C(C)C(=O)O/N=C(\N)c3ccc(OC)c(OC)c3)ccc2c1` (stereo unspecified): the IC50 in test [1] turned out to be 6.4 nM.

Molecule `COc1ccc2cc(C(C)C(=O)O/N=C(\N)c3ccc(Cl)cc3)ccc2c1` (stereo unspecified) came in with an IC50 in test [1] of 7.2 nM.

For orientation: Ki means a measure of affinity in units of concentration, obtained from inhibition or displacement. `C=C(/C=C\C)/C(CSc1nnc(-c2cc(-c3ccc(OC)cc3)nc3ccccc23)n1-c1ccccc1)=N\O`: the Ki in test [2] amounted to 94600 nM.

Molecule `C/C(=N/Nc1ccc(C(=O)O)cc1)c1cccc(N2C(=O)c3ccccc3C2=O)c1` came in with an IC50 in test [3] of 110 nM.

On to `COc1ccc(/C=C/C(=O)c2cccc(N3C(=O)c4ccccc4C3=O)c2)cc1OC`, for which half-maximal inhibition in test [3] (IC50) required 170 nM.

`CC1=C(CC(=O)Sc2ccccc2)c2cc(F)ccc2/C1=C\c1ccc([S+](C)[O-])cc1` (stereo unspecified): inhibition in test [4] was half-maximal at 1200 nM (IC50).

The record behind these values is BindingDB's records for PubMed 34029774 (Dpsr University, 2021).
